# Laboratory results published in the supplement of paper PMC10307832.
# Tests used:
# Assay in all cases: relative viability (nuclei count vs DMSO), 5 days (fraction); higher = more cells survive
# UMC-11 = test system: UMC-11
# How it was run: (§1)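 Relative viability was taken as the ratio of nuclei in treated wells to nuclei in vehicle wells. Lung cancer cell lines in 1536-well plates received compounds by pin tool one day after seeding, either one drug alone or a fixed anchor-drug dose plus five library-drug doses (not always all listed) in √10 steps. Nuclei were counted on 4× images after 5 days of treatment, and values are medians of duplicate plates.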
# NCI-H647 = test system: NCI-H647
# How it was run: as §1
# NCI-H358 = test system: NCI-H358
# How it was run: as §1
# ABC-1 = test system: ABC-1
# How it was run: as §1
# HCC-827 = test system: HCC-827
# How it was run: as §1
# NCI-H727 = test system: NCI-H727
# How it was run: as §1
# NCI-H2087 = test system: NCI-H2087
# How it was run: as §1
# NCI-H661 = test system: NCI-H661
# How it was run: as §1
# NCI-H1651 = test system: NCI-H1651
# How it was run: as §1
# NCI-H1975 = test system: NCI-H1975
# How it was run: as §1
# NCI-H1437 = test system: NCI-H1437
# How it was run: as §1
# EKVX = test system: EKVX
# How it was run: as §1
# NCI-H520 = test system: NCI-H520
# How it was run: as §1
# EPLC-272H = test system: EPLC-272H
# How it was run: as §1
# NCI-H1792 = test system: NCI-H1792
# How it was run: as §1
# 201T = test system: 201T
# How it was run: as §1
# H3255 = test system: H3255
# How it was run: as §1
# COR-L 105 = test system: COR-L 105
# How it was run: as §1
# COR-L23 = test system: COR-L23
# How it was run: as §1
# HCC-44 = test system: HCC-44
# How it was run: as §1
# LCLC-103H = test system: LCLC-103H
# How it was run: as §1
# HCC-15 = test system: HCC-15
# How it was run: as §1
structure (smiles),measurement,setting,value
O=C(O)CCCCC(CCSCc1ccccc1)SCc1ccccc1 (stereo not given) [CPI-613] + Cc1nc(NC(=O)N2CCC[C@H]2C(N)=O)sc1-c1ccnc(C(C)(C)C(F)(F)F)c1 [Alpelisib] (partner 2 µM),relative viability,UMC-11; first compound 5 µM,0.89
same,relative viability,UMC-11; first compound 15.81 µM,0.964
same,relative viability,UMC-11; first compound 50 µM,1.02
same,relative viability,UMC-11; first compound 158.11 µM,0.398
same,relative viability,UMC-11; first compound 500 µM,0.0725
same,relative viability,NCI-H647; first compound 5 µM,1.19
same,relative viability,NCI-H647; first compound 15.81 µM,0.968
same,relative viability,NCI-H647; first compound 50 µM,0.769
same,relative viability,NCI-H647; first compound 158.11 µM,0.0933
same,relative viability,NCI-H647; first compound 500 µM,0.0159
same,relative viability,NCI-H358; first compound 5 µM,0.851
same,relative viability,NCI-H358; first compound 15.81 µM,0.742
same,relative viability,NCI-H358; first compound 50 µM,0.912
same,relative viability,NCI-H358; first compound 158.11 µM,0.261
same,relative viability,NCI-H358; first compound 500 µM,0.0364
same,relative viability,ABC-1; first compound 5 µM,1.02
same,relative viability,ABC-1; first compound 15.81 µM,1.2
same,relative viability,ABC-1; first compound 50 µM,1.26
same,relative viability,ABC-1; first compound 158.11 µM,0.39
same,relative viability,ABC-1; first compound 500 µM,0.223
same,relative viability,HCC-827; first compound 5 µM,0.972
same,relative viability,HCC-827; first compound 15.81 µM,1
same,relative viability,HCC-827; first compound 50 µM,0.974
same,relative viability,HCC-827; first compound 158.11 µM,0.47
same,relative viability,HCC-827; first compound 500 µM,0.218
same,relative viability,NCI-H727; first compound 5 µM,0.531
same,relative viability,NCI-H727; first compound 15.81 µM,0.558
same,relative viability,NCI-H727; first compound 50 µM,0.662
same,relative viability,NCI-H727; first compound 158.11 µM,0.226
same,relative viability,NCI-H727; first compound 500 µM,0.0618
same,relative viability,NCI-H2087; first compound 5 µM,1.14
same,relative viability,NCI-H2087; first compound 15.81 µM,0.95
same,relative viability,NCI-H2087; first compound 50 µM,0.95
same,relative viability,NCI-H2087; first compound 158.11 µM,0.0725
same,relative viability,NCI-H2087; first compound 500 µM,0.0158
same,relative viability,NCI-H661; first compound 5 µM,0.68
same,relative viability,NCI-H661; first compound 15.81 µM,0.515
same,relative viability,NCI-H661; first compound 50 µM,0.939
same,relative viability,NCI-H661; first compound 158.11 µM,0.594
same,relative viability,NCI-H661; first compound 500 µM,0.608
same,relative viability,NCI-H1651; first compound 5 µM,0.969
same,relative viability,NCI-H1651; first compound 15.81 µM,0.895
same,relative viability,NCI-H1651; first compound 50 µM,0.967
same,relative viability,NCI-H1651; first compound 158.11 µM,0.41
same,relative viability,NCI-H1651; first compound 500 µM,0.116
same,relative viability,NCI-H1975; first compound 5 µM,0.542
same,relative viability,NCI-H1975; first compound 15.81 µM,0.655
same,relative viability,NCI-H1975; first compound 50 µM,0.692
same,relative viability,NCI-H1975; first compound 158.11 µM,0.327
same,relative viability,NCI-H1975; first compound 500 µM,0.0528
same,relative viability,NCI-H1437; first compound 5 µM,0.944
same,relative viability,NCI-H1437; first compound 15.81 µM,0.961
same,relative viability,NCI-H1437; first compound 50 µM,1.03
same,relative viability,NCI-H1437; first compound 158.11 µM,0.16
same,relative viability,NCI-H1437; first compound 500 µM,0.0244
same,relative viability,EKVX; first compound 5 µM,0.802
same,relative viability,EKVX; first compound 15.81 µM,0.814
same,relative viability,EKVX; first compound 50 µM,0.903
same,relative viability,EKVX; first compound 158.11 µM,0.857
same,relative viability,EKVX; first compound 500 µM,0.965
same,relative viability,NCI-H520; first compound 5 µM,0.731
same,relative viability,NCI-H520; first compound 15.81 µM,1.01
same,relative viability,NCI-H520; first compound 50 µM,0.845
same,relative viability,NCI-H520; first compound 158.11 µM,0.403
same,relative viability,NCI-H520; first compound 500 µM,0.112
same,relative viability,EPLC-272H; first compound 5 µM,0.95
same,relative viability,EPLC-272H; first compound 15.81 µM,0.813
same,relative viability,EPLC-272H; first compound 50 µM,0.94
same,relative viability,EPLC-272H; first compound 158.11 µM,0.923
same,relative viability,EPLC-272H; first compound 500 µM,1.04
same,relative viability,NCI-H1792; first compound 5 µM,0.675
same,relative viability,NCI-H1792; first compound 15.81 µM,0.646
same,relative viability,NCI-H1792; first compound 50 µM,0.71
same,relative viability,NCI-H1792; first compound 158.11 µM,0.555
same,relative viability,NCI-H1792; first compound 500 µM,0.709
same,relative viability,201T; first compound 5 µM,1
same,relative viability,201T; first compound 15.81 µM,0.976
same,relative viability,201T; first compound 50 µM,0.996
same,relative viability,201T; first compound 158.11 µM,1.01
same,relative viability,201T; first compound 500 µM,1.01
same,relative viability,H3255; first compound 5 µM,0.695
same,relative viability,H3255; first compound 15.81 µM,0.576
same,relative viability,H3255; first compound 50 µM,0.695
same,relative viability,H3255; first compound 158.11 µM,0.639
same,relative viability,H3255; first compound 500 µM,0.672
same,relative viability,COR-L 105; first compound 5 µM,0.888
same,relative viability,COR-L 105; first compound 15.81 µM,1.11
same,relative viability,COR-L 105; first compound 50 µM,0.909
same,relative viability,COR-L 105; first compound 158.11 µM,0.476
same,relative viability,COR-L 105; first compound 500 µM,0.161
same,relative viability,COR-L23; first compound 5 µM,0.745
same,relative viability,COR-L23; first compound 15.81 µM,0.696
same,relative viability,COR-L23; first compound 50 µM,0.852
same,relative viability,COR-L23; first compound 158.11 µM,0.281
same,relative viability,COR-L23; first compound 500 µM,0.0191
same,relative viability,HCC-44; first compound 5 µM,0.841
same,relative viability,HCC-44; first compound 15.81 µM,0.758
same,relative viability,HCC-44; first compound 50 µM,0.92
same,relative viability,HCC-44; first compound 158.11 µM,0.374
same,relative viability,HCC-44; first compound 500 µM,0.041
same,relative viability,LCLC-103H; first compound 5 µM,0.845
same,relative viability,LCLC-103H; first compound 15.81 µM,0.974
same,relative viability,LCLC-103H; first compound 50 µM,0.883
same,relative viability,LCLC-103H; first compound 158.11 µM,0.873
same,relative viability,LCLC-103H; first compound 500 µM,0.964
same,relative viability,HCC-15; first compound 5 µM,0.942
same,relative viability,HCC-15; first compound 15.81 µM,0.805
same,relative viability,HCC-15; first compound 50 µM,0.828
same,relative viability,HCC-15; first compound 158.11 µM,0.562
same,relative viability,HCC-15; first compound 500 µM,0.35
